# Source: patent publication US20080292561A1, “Pyrazolo-Pyrimidine Derivatives as Anti-Inflammatory Agents” (Glaxo Group Limited, priority 2005, published 2008)
# System: NFkB activity
# Test: Glucocorticoid mediated transrepression of NFkB activity (A549 cells, ELAM promoter alkaline phosphatase reporter, TNFα)
# Assay type: cell-based
# Conditions: Homo sapiens, A549, 16 h, Human A549 lung epithelial cells, 3 ng/ml human recombinant TNFα, read-out: pIC50, transrepression of NFkB activity (converted)
# Source text: Human A549 lung epithelial cells were engineered to contain a secreted placental alkaline phosphatase gene under the control of the distal region of the NFkB dependent ELAM promoter as previously described in Ray, K. P., Farrow, S., Daly, M., Talabot, F. and Searle, N. “Induction of the E-selectin promoter by interleukin 1 and tumour necrosis factor alpha, and inhibition by glucocorticoids” Biochemical Journal (1997) 328: 707-15.
# Compounds were solvated and diluted in DMSO, and transferred directly into assay plates such that the final concentration of DMSO was 0.7%. Following the addition of cells (40K per well), plates were incubated for 1 hr prior to the addition of 3 ng/ml human recombinant TNFα. Following continued incubation for 16 hr, alkaline phosphatase activity was determined by measuring the change in optical density at 405 nm with time following the addition of 0.7 volumes of assay buffer (1 mg/ml p-nitrophenylphosphate dissolved in 1M diethanolamine, 0.28M NaCl, 0.5 mM MgCl2). Dose response curves were constructed from which EC50 values were estimated.
row,IC50,Compound
1,< 100 nM,"CCc1nc(NCC(O)(CC(C)(C)c2cc(F)ccc2OC)C(F)(F)F)c2cnn(-c3ccccc3)c2n1 (stereo not shown) [Example 26, 2-{[(6-Ethyl-1-phenyl-1H-pyrazolo[3,4-d]pyrimidin-4-yl)amino]methyl}-1,1,1-trifluoro-4-[5-fluoro-2-(methyloxy)phenyl]-4-methyl-2-pentanol]"
2,< 100 nM,"COc1ccc(F)cc1C(C)(C)CC(O)(CNc1nc(C)nc2c1cnn2-c1cccc(C#N)c1)C(F)(F)F (stereo not shown) [Example 27, 3-(4-{[4-[5-Fluoro-2-(methyloxy)phenyl]-2-hydroxy-4-methyl-2-(trifluoromethyl)pentyl]amino}-6-methyl-1H-pyrazolo[3,4-d]pyrimidin-1-yl)benzonitrile]"
3,< 100 nM,"CCc1nc(NCC(O)(CC(C)(C)c2cccc3c2OCC3)C(F)(F)F)c2cnn(-c3cccc(C#N)c3)c2n1 (stereo not shown) [Example 29, 3-(4-{[4-(2,3-Dihydro-1-benzofuran-7-yl)-2-hydroxy-4-methyl-2-(trifluoromethyl)pentyl]amino}-6-ethyl-1H-pyrazolo[3,4-d]pyrimidin-1-yl)benzonitrile]"
4,< 100 nM,"CCc1nc(NCC(O)(CC(C)(C)c2cccc3c2OCC3)C(F)(F)F)c2cnn(-c3cccc(C(=O)OC)c3)c2n1 (stereo not shown) [Example 30, Methyl 3-(4-{[4-(2,3-dihydro-1-benzofuran-7-yl)-2-hydroxy-4-methyl-2-(trifluoromethyl)pentyl]amino}-6-ethyl-1H-pyrazolo[3,4-d]pyrimidin-1-yl)benzoate]"
